# According to US12673035B2, “Solid dosage forms of elafibranor” (Genfit, priority 2023, dated 2026):
# Key:
# [1] = test system: liver function of subjects; test: Phase 2a clinical studies and Phase 2b clinical trial, liver function; type: in vivo, human; conditions: 80 mg/day for 1 to 3 months (Phase 2a); 80 mg/day and 120 mg/day for 12 months (Phase 2b)
# rat = test: Acute toxicity study, single oral doses, rat; type: in vivo
# Method: (§1) According to acute toxicity study results, it can be concluded that elafibranor is extremely safe when administered as single oral doses in rat and mouse, since no sign of toxicity was detected up to the dose of 1000 mg/kg.
# mouse = test: Acute toxicity study, single oral doses, mouse; type: in vivo
# Method: as §1
# [2] = test system: patients with PBC with an inadequate response or intolerance to Ursodeoxycholic acid (UDCA); test: Phase 3 double-blind, randomized, placebo-controlled trial in PBC; type: in vivo, human; conditions: 80 mg once daily
# Method: This example describes a double-blind, randomized, placebo-controlled trial to evaluate the efficacy and safety of elafibranor 80 mg once daily (qd) versus placebo in a PBC population.
# The study included a screening visit, followed by 52 weeks of double-blind treatment period. Patients attended study visits at randomization, Week 4, 13, 26, and 39 during the treatment period.
# Elafibranor was administered per os, once daily at 80 mg, for 52 weeks, in the form of tablets of the invention (Formulation 4). The elafibranor 80 mg tablets contained elafibranor (active ingredient) and excipients (microcrystalline cellulose, povidone, croscarmellose, anhydrous colloidal silica, magnesium stearate, Opadry® II white). The white tablets were provided to the participants in aluminum blisters.
# The primary objectives were to compare the effect of daily oral administration of elafibranor 80 mg on changes in relevant biochemical indicators of cholestasis or in pruritus to that of placebo in patients with PBC with an inadequate response or intolerance to Ursodeoxycholic acid (UDCA).
# [3] = test system: patients with PBC with an inadequate response or intolerance to Ursodeoxycholic acid (UDCA); conditions: phase 3 trial NCT04526665, N Engl J Med 2023; cited from earlier work
# [4] = test system: patients with PBC and inadequate response to Ursodeoxycholic acid (UDCA); test: Phase 2 double-blind, randomized, placebo-controlled trial in PBC; type: in vivo, human; conditions: for mean relative change from baseline to endpoint in serum ALP / median relative change from baseline to endpoint in the pruritus VAS / treatment effect estimate vs placebo, serum ALP (supportive analysis, ANCOVA with baseline ALP as covariate) / mean relative change from baseline to endpoint in GGT / treatment effect estimate vs placebo, GGT (non-parametric randomization-based ANCOVA) / response rates defined by at least 10%, 20% and 40% decrease in ALP from baseline to endpoint, compared to placebo: 12 weeks; for mean relative change from baseline to endpoint in GGT / treatment effect estimate vs placebo, GGT (non-parametric randomization-based ANCOVA) / response rates defined by at least 10%, 20% and 40% decrease in ALP from baseline to endpoint, compared to placebo: mITT set; for response rates defined by at least 10%, 20% and 40% decrease in ALP from baseline to endpoint, compared to placebo: Fishers exact test, p<0.001; for response rate as defined by Paris I risk scores (ALP≤3×ULN, AST≤2×ULN, bilirubin within normal limits) / response rate as defined by Paris II risk scores (ALP≤1.5×ULN, AST≤1.5×ULN, bilirubin within normal limits) / response rate as defined by Toronto I risk scores (ALP≤1.67×ULN) / response rate as defined by Toronto II risk scores (ALP≤1.75×ULN): baseline to endpoint
# Method: This example describes a double-blind, randomized, placebo-controlled trial to evaluate the efficacy and safety of elafibranor 80 mg and 120 mg once daily (qd) versus placebo in a PBC population.
# The study included a screening visit, followed by 12 weeks of double-blind treatment period. Patients attended study visits at randomization, Week 2, 4, 8, 12 during the treatment period.
# Elafibranor was administered per os, once daily at 80 mg or 120 mg, for 12 weeks, in the form of tablets of the invention (Formulations 4 and 3). The elafibranor 120 mg and 80 mg tablets contained elafibranor (active ingredient) and excipients (microcrystalline cellulose, povidone, croscarmellose, anhydrous colloidal silica, magnesium stearate, Opadry® II white). The white tablets were provided to the participants in aluminum blisters.
# The primary objectives were to compare the effect of daily oral administration of elafibranor 80 mg and 120 mg on changes in serum alkaline phosphatase (ALP) to that of placebo in patients with PBC and inadequate response to Ursodeoxycholic acid (UDCA).
# The primary endpoint of the study was to evaluate the efficacy of elafibranor 80 mg or 120 mg with respect to relative change from baseline in serum ALP levels compared to placebo.
# Absolute changes in serum ALP levels were monitored from Baseline to week 2, 4, 8 and 12.
# The treatment effect estimate was −52.0% (95% CI [−62.5; −41.5]) for the elafibranor 80 mg treatment group and −43.9% (95% CI [−55.7; −32.1]) for the elafibranor 120 mg treatment group.
# The primary efficacy supportive analysis conducted using an ANCOVA with baseline ALP as a covariate was consistent with the primary efficacy analysis. The treatment effect estimate was −51.4% (95% CI [−63.3; −39.5]) for the elafibranor 80 mg treatment group and −43.9% (95% CI [−55.8; −31.9]) for the elafibranor 120 mg treatment group.
# The percentage of patients was calculated who met the definition of PBC responder criteria applying the Paris I, Toronto I, Toronto II, […], Mayo II, and Barcelona disease prognostic risk criteria. Paris I risk scores were defined as ALP≤3×ULN and AST≤2×ULN and bilirubin within normal limits.
# Paris II risk scores were defined as ALP≤1.5×ULN and AST≤1.5×ULN and bilirubin within normal limits.
# Toronto I risk scores were defined as ALP≤1.67×ULN.
# Toronto II risk scores were defined as ALP≤1.75×ULN.
# Considering that pruritus is a preeminent adverse event in subjects with PBC, assessment of pruritus was also considered. More specifically, the change from baseline in pruritus (through 5D-itch scale (measuring the degree, duration, direction [improvement or worsening], disability [effect on daily activities], and distribution of itching) and visual analogue scale for pruritus (VAS).
# The 5D-itch scale is a reliable, multidimensional measure of itching that has been validated in patients with chronic pruritus to detect changes over time (Elman S, et al., The 5-D itch scale: a new measure of pruritus. Br J Dermatol. 2010; 162(3):587-593). The VAS is a reliable and validated method of pruritus assessment (Reich A, et al., Visual analogue scale: evaluation of the instrument for the assessment of pruritus. Acta Derm Venereol. 2012; 92(5):497-501).
# [5] = Particle size analysis of jet-milled (micronized) elafibranor; type: physicochemical
# Description: Particle size of agglomeration was identified as playing a primary role in the dissolution and variability in the blend uniformity and content uniformity of tablet formulations. In order to obtain suitable particle size distribution, milling of elafibranor was investigated. The micronisation process acts to accelerate grains of powder, with an air jet, in a tornado like flow path within the micronisation chamber of the mill. As particles travel in the circular path, they collide, which leads to a reduction in particle size. Centrifugal force directs larger particles to the outside of the chamber and smaller particles are concentrated in the centre of the mill where they can be transferred to the outlet when the appropriate particle size has been reached.
# The micronisation process of elafibranor has been performed with the following jet-mill equipment: Microniser Alpine 200 Aeroplex in ambient conditions of temperature and hygrometry.
# The feeder delivers the dosage to the microniser by two screws. This system allows a regularity of the flow. A disposable sleeve is used to separate the air and the micronised product at the end of the microniser.
# The micronised elafibranor powder is then collected into polyethylene bags and the obtained weight at the end of the micronisation operation has been recorded.
# acceptance criteria: D50%≤5 μm and D90%≤15 μm
# [6] = mean of clinical batches #1 to #7
smiles,measurement,setting,value
"CSc1ccc(C(=O)/C=C/c2cc(C)c(OC(C)(C)C(=O)O)c(C)c2)cc1 [elafibranor, 2-[2,6-dimethyl-4-[(E)-3-(4-methylsulfanylphenyl)-3-oxoprop-1-enyl]phenoxy]-2-methylpropanoic acid]","effects on liver function, relevant to PBC",[1],Beneficial effects
same,dose up to which no sign of toxicity was detected,rat,≥ 1000 mg/kg
same,dose up to which no sign of toxicity was detected,mouse,≥ 1000 mg/kg
same,"biochemical response (primary end point), patients","[2]; 52 weeks (Formulation 4), 55 of 108 patients",51%
same,difference vs placebo in biochemical response,"[2]; 52 weeks, 95% CI 32 to 57",47 percentage points
same,patients in whom the alkaline phosphatase level normalized,[2]; at week 52,15%
same,difference vs placebo in alkaline phosphatase normalization,"[2]; at week 52, 95% CI 6 to 23",15 percentage points
same,difference vs placebo in least-squares mean change on the WI-NRS,"[2]; through week 52, moderate-to-severe pruritus, 95% CI −1.99 to 0.42, P=0.20",−0.78
same,least-squares mean change from baseline through week 52 on the WI-NRS,[2]; patients with moderate-to-severe pruritus,−1.93
same,improvements in relevant biochemical indicators of cholestasis vs placebo,[3],significantly greater improvements in relevant biochemical indicators of cholestasis than placebo
same,"treatment effect estimate vs placebo, relative change from baseline in serum ALP (primary analysis, non-parametric randomization-based ANCOVA)","[4]; 80 mg once daily per os, 12 weeks (Formulation 4 tablets)",−52.0%
same,mean relative change from baseline to endpoint in serum ALP,[4]; 80 mg once daily,−48.3%
same,median relative change from baseline to endpoint in the pruritus VAS,[4]; 80 mg once daily,−23.7%
same,"treatment effect estimate vs placebo, serum ALP (supportive analysis, ANCOVA with baseline ALP as covariate)",[4]; 80 mg once daily,−51.4%
same,mean relative change from baseline to endpoint in GGT,[4]; 80 mg once daily,−37.1%
same,"treatment effect estimate vs placebo, GGT (non-parametric randomization-based ANCOVA)",[4]; 80 mg once daily,−38.6%
same,"response rates defined by at least 10%, 20% and 40% decrease in ALP from baseline to endpoint, compared to placebo",[4]; 80 mg once daily,statistically significantly greater proportion of responders
same,"response rate as defined by Paris I risk scores (ALP≤3×ULN, AST≤2×ULN, bilirubin within normal limits)",[4]; 80 mg once daily,80.0%
same,"response rate as defined by Paris II risk scores (ALP≤1.5×ULN, AST≤1.5×ULN, bilirubin within normal limits)",[4]; 80 mg once daily,53.3%
same,response rate as defined by Toronto I risk scores (ALP≤1.67×ULN),[4]; 80 mg once daily,66.7%
same,response rate as defined by Toronto II risk scores (ALP≤1.75×ULN),[4]; 80 mg once daily,66.7%
same,"treatment effect estimate vs placebo, relative change from baseline in serum ALP (primary analysis, non-parametric randomization-based ANCOVA)","[4]; 120 mg once daily per os, 12 weeks (Formulation 3 tablets)",−43.9%
same,mean relative change from baseline to endpoint in serum ALP,[4]; 120 mg once daily,−40.6%
same,median relative change from baseline to endpoint in the pruritus VAS,[4]; 120 mg once daily,−49.5%
same,"treatment effect estimate vs placebo, serum ALP (supportive analysis, ANCOVA with baseline ALP as covariate)",[4]; 120 mg once daily,−43.9%
same,mean relative change from baseline to endpoint in GGT,[4]; 120 mg once daily,−40.0%
same,"treatment effect estimate vs placebo, GGT (non-parametric randomization-based ANCOVA)",[4]; 120 mg once daily,−39.9%
same,"response rates defined by at least 10%, 20% and 40% decrease in ALP from baseline to endpoint, compared to placebo",[4]; 120 mg once daily,statistically significantly greater proportion of responders
same,"response rate as defined by Paris I risk scores (ALP≤3×ULN, AST≤2×ULN, bilirubin within normal limits)",[4]; 120 mg once daily,78.6%
same,"response rate as defined by Paris II risk scores (ALP≤1.5×ULN, AST≤1.5×ULN, bilirubin within normal limits)",[4]; 120 mg once daily,50.0%
same,response rate as defined by Toronto I risk scores (ALP≤1.67×ULN),[4]; 120 mg once daily,78.6%
same,response rate as defined by Toronto II risk scores (ALP≤1.75×ULN),[4]; 120 mg once daily,78.6%
CSc1ccc(C(=O)/C=C/c2cc(C)c(OC(C)(C)C(=O)O)c(C)c2)cc1 [micronized elafibranor],D50%,[5]; clinical batch #1,2.387 μm
same,D90%,[5]; clinical batch #1,6.292 μm
same,D50%,[5]; clinical batch #2,3.511 μm
same,D90%,[5]; clinical batch #2,10.06 μm
same,D50%,[5]; clinical batch #3,2.53 μm
same,D90%,[5]; clinical batch #3,6.439 μm
same,D50%,[5]; clinical batch #4,4.079 μm
same,D90%,[5]; clinical batch #4,10.895 μm
same,D50%,[5]; clinical batch #5,2.171 μm
same,D90%,[5]; clinical batch #5,6.589 μm
same,D50%,[5]; clinical batch #6,2.089 μm
same,D90%,[5]; clinical batch #6,6.495 μm
same,D50%,[5]; clinical batch #7,2.523 μm
same,D90%,[5]; clinical batch #7,6.671 μm
same,D50% mean,[5]; [6],2.756 μm
same,D90% mean,[5]; [6],7.634 μm
